Results on two molecules are retold here after US20150173358A1, “HERBICIDAL COMPOSITIONS CONTAINING IMAZAPIC, AMINOPYRALID AND OPTIONALLY METSULFURON” (DOW AGROSCIENCES LLC, priority 2013, published 2015).

The test system of this assay is BOIVE: whitehead broom (Borerria verticillata). The assay is described as follows: Postemergence herbicidal activity of mixtures in the field (visual weed control). The format is in vivo. As for the experimental part:
Field trials were conducted in Brazil in pasture area cultivated with Brachiaria brizantha using standard herbicide small-plot research methodology. The plot size used was 3×8 meter (m; width×length) with 4 replicates per treatment. The pasture was grown using normal cultural practices for fertilization, management, and maintenance to ensure good growth of the crop and the weeds.
All treatments in the field trials were applied using a carbon dioxide (CO2) backpack air sprayer with flat fan nozzles (110.03°), calibrated to apply 250 liters per hectare (L/ha) spray volume at approximately 35 pounds per square inch (PSI). Formulations of aminopyralid (triisopropanolammonium salt) at 100 grams acid equivalent per hectare (g ae/ha) and aminopyralid (potassium salt, 525grams acid equivalent per kilogram (g ae/kg))+metsulfuron-methyl (94.5 grams active ingredient per kilogram (g ai/kg)) at 118 grams per hectare (g/ha) were mixed with imazapic at 70 and 140 g ae/ha and water+Joint Mineral Oil at appropriate formulated product rates to achieve the desired rates based on a unit area of application (hectare) as shown. Treatments were rated at 15 to 281 days after application (DAA) as compared to the untreated control plants. Visual weed control of BOIVE was scored on a scale of 0 to 100 percent where 0 corresponds to no injury and 100 corresponds to complete kill.
All treatment results, both for the single product and mixtures, are an average of 3 to 4 replicates and the tank-mix interactions are significant at the […] level.
Colby's equation was used to determine the herbicidal effects expected from the mixtures (Colby, S.R. Calculation of the synergistic and antagonistic response of herbicide combinations. Weeds 1967, 15, 20-22). […]
The experiments described herein in Table 2 were performed such that the “B” component in Colby's equation was the activity for the combination of aminopyralid and metsulfuron and only the activity for the combination was determined. […]

In the case of `Cc1cnc(C2=NC(C)(C(C)C)C(=O)N2)c(C(=O)O)c1` (racemic) [Imazapic, (±)-2-[4,5-dihydro-4-methyl-4-(1-methylethyl)-5-oxo-1H-imidazol-2-yl]-5-methyl-3-pyridinecarboxylic acid], the “% Visual Control BOIVE (281 DAA) Obs” value amounted to 0% (Imazapic (ammonium salt) 70 g ae/ha alone, postemergence field trial, Brazil pasture) and 14% (Imazapic (ammonium salt) 140 g ae/ha alone, postemergence field trial).

With `Nc1cc(Cl)nc(C(=O)O)c1Cl` [Aminopyralid, 4-amino-3,6-dichloro-2-pyridinecarboxylic acid], the “% Visual Control BOIVE (281 DAA) Obs” value (Aminopyralid (triisopropanolammonium salt) 100 g ae/ha alone) was determined as 41%.
